# Results as given in US20020182207A1, “Methods and compositions for modifying biologically active target molecules” (priority 2000, published 2002).
# What was measured:
# [1] = target: TNFα (Homo sapiens, UniProt P01375); test: ECL-based assay of TNFα binding to its receptor after incubation with label (sugars, ampicillin)
# Description: Experiments were conducted to determine whether catalytic antibodies can chemically modify and thereby inactivate disease-associated proteins. First, the reaction of reducing sugars with the disease-associated protein, tumor necrosis factor alpha (TNFα) was examined. In this reaction, the reducing sugar aldehyde covalently reacts with protein lysine sidechains. Chemical modification was detected using an ECL-based binding assay that measures the binding of TNFα to its receptor (an assay of biological function). […] Thus, chemical modification is a viable approach to inactivate proteins. Experiments were conducted to determine whether catalytic antibodies can inactivate disease-associated proteins. First, the reaction of reducing sugars with the disease-associated protein, tumor necrosis factor alpha (TNFα) was examined. In this reaction, the reducing sugar aldehyde covalently reacts with protein lysine sidechains. Chemical modification was detected using an ECL-based immunoassay that measures the binding of TNFα to its receptor. The assay is a sandwich format that uses antibodies directed against TNF and its receptor. One antibody is labeled with biotin, the other with an ECL label (TAG NHS Ester, IGEN International). When the TNF-TNF receptor complex is present, a sandwich complex comprising both a biotin and an ECL label is formed. This sandwich complex is captured on streptavidin-coated magnetic beads and measured using ECL detection. Alternatively, the TNF receptor may be directly biotinylated and the TNF target molecule labeled directly with the ECL label (or visa versa); in this alternative approach, no antibodies are necessary. […] Thus, chemical modification may be used to inactivate proteins. The uncatalyzed reaction between a β-lactam (ampicillin) and two proteins was also examined. Bovine serum albumin (BSA) and ampicillin were reacted overnight. […] Ampicillin was also reacted with TNFα overnight. […] Thus, this reaction is much more facile than the reaction of TNFα with reducing sugars.
# [2] = tested on: β-lactamase-producing E. coli (TG1 phage antibody E. coli); test: Growth of β-lactamase-producing E. coli on agar plates containing antibiotics; format: cell-based; parameters: E. coli growth score on agar plate: key to the marks not given beside the values; settings: for Concentration toxic to β-lactamase-expressing E. coli / Concentration toxic to β-lactamase-expressing E. coli (toxic level): agar plates; for Concentration toxic to β-lactamase-expressing E. coli (toxic level): called IC50 in b119 and b167; for Antibiotic effect on β-lactamase-producing E. coli (in words): at the indicated concentrations of Table 2
# Description: First, the ability of these candidate cephalosporins to kill the relevant β-lactamase-producing E. coli (TG1 phage antibody E. coli) was tested. […] This is presumably due to β-lactamase-catalyzed inactivation. […] Presumably, neither is inactivated by E. coli β-lactamase. […] More preferably, E. coli should be challenged with approximately 40-45 μM cefoxitin and 0.45-0.50 μM cefotaxime.
# Next, the ability of the cephalosporins to kill the relevant β-lactamase-producing E. coli (TG1 phage antibody E. coli) was tested by growing the bacteria on agar plates containing the antibiotics. […] This is presumably due to β-lactamase-catalyzed inactivation. […] Presumably, neither is inactivated by E. coli β-lactamase.
# A second experiment was performed in which E. coli was grown on agar plates containing varying amounts of cefotaxime.
# [3] = Pseudo-first order NaOH hydrolysis rates by UV spectrometry; format: physicochemical; settings: 1.0 mM antibiotic, 10.0 mM NaOH, 30.0° C.
# Description: Further, before choosing either cefoxitin or cefotaxime as the labeling reactant, it was verified that their uncatalyzed reactivity rates were as facile as that of ampicillin. Model reactions were performed comparing the (NaOH) hydrolysis rates of cefoxitin, cefotaxime, and ampicillin. Hydrolysis and acylation are mechanistically identical. Their pseudo-first order hydrolysis rates as measured by UV spectrometry (1.0 mM antibiotic, 10.0 mM NaOH, 30.0° C.) were virtually the same: […]
# [4] = first column, head printed 10 g/mL
# [5] = second column, head printed 10 g/mL
# Chain of TNFα (P01375 77-233 limits assumed): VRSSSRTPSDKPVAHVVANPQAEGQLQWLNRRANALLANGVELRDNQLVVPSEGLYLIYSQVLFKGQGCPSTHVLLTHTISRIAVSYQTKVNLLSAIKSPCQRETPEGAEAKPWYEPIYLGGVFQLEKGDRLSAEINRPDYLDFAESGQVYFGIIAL
smiles,measurement,setting,value
O=C[C@H](O)[C@@H](O)[C@@H](O)[C@H](O)CO [Galactose],"TNFα receptor binding following incubation with sugar (control buffer = 1.00, arbitrary)",[1]; incubation time: 7 days,0.89
same,"TNFα receptor binding following incubation with sugar (control buffer = 1.00, arbitrary)",[1]; incubation time: 14 days,0.82
same,"TNFα receptor binding following incubation with sugar (control buffer = 1.00, arbitrary)",[1]; incubation time: None,1.00
OC[C@H]1O[C@@](CO)(O[C@H]2O[C@H](CO)[C@@H](O)[C@H](O)[C@H]2O)[C@@H](O)[C@@H]1O [sucrose],Inactivation of TNFα receptor binding (in words),[1]; 2-week incubation period,did not inactivate TNFα
CO/N=C(\C(=O)N[C@@H]1C(=O)N2C(C(=O)O)=C(COC(C)=O)CS[C@H]12)c1csc(N)n1 [Cefotaxime],Concentration toxic to β-lactamase-expressing E. coli,[2],~0.25 µM
same,Concentration toxic to β-lactamase-expressing E. coli (toxic level),[2],~0.12 µg/mL
same,Antibiotic effect on β-lactamase-producing E. coli (in words),[2],excellent antibiotic effects
same,# of E. coli colonies,[2]; cefotaxime concentration 0.04 μg/mL,225
same,# of E. coli colonies,[2]; cefotaxime concentration 0.12 μg/mL,5
same,# of E. coli colonies,[2]; cefotaxime concentration 0.37 μg/mL,0
same,# of E. coli colonies,[2]; cefotaxime concentration 1.11 μg/mL,0
same,Pseudo-first order hydrolysis rate,[3],0.0041 min⁻¹
O=C(CO)[C@@H](O)[C@H](O)[C@H](O)CO [Fructose],"TNFα receptor binding following incubation with sugar (control buffer = 1.00, arbitrary)",[1]; incubation time: 7 days,0.79
same,"TNFα receptor binding following incubation with sugar (control buffer = 1.00, arbitrary)",[1]; incubation time: 14 days,0.67
same,"TNFα receptor binding following incubation with sugar (control buffer = 1.00, arbitrary)",[1]; incubation time: None,1.02
N[C@@H](C(=O)N[C@@H]1C(=O)N2C(C(=O)O)=C(Cl)CS[C@H]12)c1ccccc1 [Cefaclor],Antibiotic effect on β-lactamase-producing E. coli (in words),[2],little or no antibiotic effect
same,E. coli growth score on agar plate,[2]; [4],+++++
CO[C@@]1(NC(=O)Cc2cccs2)C(=O)N2C(C(=O)O)=C(COC(N)=O)CS[C@@H]21 [Cefoxitin],Concentration toxic to β-lactamase-expressing E. coli,[2],~22 µM
same,Concentration toxic to β-lactamase-expressing E. coli (toxic level),[2],approximately 10 μg/mL
same,Antibiotic effect on β-lactamase-producing E. coli (in words),[2],excellent antibiotic effects
same,Number of E. coli colonies on agar plate,[2]; [4],30 colonies
same,Pseudo-first order hydrolysis rate,[3],0.00438 min⁻¹
CC1(C)S[C@@H]2[C@H](NC(=O)[C@H](N)c3ccccc3)C(=O)N2[C@H]1C(=O)O [Ampicillin],Antibiotic effect on β-lactamase-producing E. coli (in words),[2],little or no antibiotic effect
same,E. coli growth score on agar plate,[2]; [4],+++++
same,E. coli growth score on agar plate,[2]; [5],+++++
same,Pseudo-first order hydrolysis rate,[3],0.00564 min⁻¹
same,Loss of TNFα biological activity according to the receptor binding assay,"[1]; reacted with TNFα overnight, uncatalyzed",16%
CC(=O)OCC1=C(C(=O)O)N2C(=O)[C@@H](NC(=O)Cc3cccs3)[C@H]2SC1 [Cephalothin],Antibiotic effect on β-lactamase-producing E. coli (in words),[2],little or no antibiotic effect
same,E. coli growth score on agar plate,[2]; [4],+++++
same,E. coli growth score on agar plate,[2]; [5],+++++
